Experimental data as given in ChEMBL document CHEMBL5620434, “Total Synthesis and Antibacterial Evaluation of Lupinifolin and Its Natural Analogues” (2024).
In brackets after ≈: the same amount, converted by molar mass. Activity calls are given as the source filed them. The calls are words filed in the database; no cut-off is given here.

Assays:
Staphylococcus aureus [1] = assay: Antibacterial activity against methicillin-resistant Staphylococcus aureus 21-5 assessed as reduction in bacterial growth incubated for 24 hrs by CLSI protocol based assay; format: functional
Escherichia coli [2] = assay: Antibacterial activity against Escherichia coli ATCC 25922 assessed as reduction in bacterial growth incubated for 24 hrs by CLSI protocol based assay; format: functional
Enterococcus faecalis [3] = assay: Antibacterial activity against vancomycin-resistant Enterococcus faecalis ATCC51299 assessed as reduction in bacterial growth incubated for 24 hrs by CLSI protocol based assay; format: functional
Staphylococcus aureus [4] = assay: Antibacterial activity against Staphylococcus aureus ATCC29213 assessed as reduction in bacterial growth incubated for 24 hrs by CLSI protocol based assay; format: functional
Enterococcus faecalis [5] = assay: Antibacterial activity against Enterococcus faecalis ATCC29212 assessed as reduction in bacterial growth incubated for 24 hrs by CLSI protocol based assay; format: functional
Escherichia coli [6] = assay: Antibacterial activity against Escherichia coli ATCC 25922; format: functional
Escherichia coli [7] = assay: Antibacterial activity against Escherichia coli ATCC 25922 in presence of polymyxin B nonapeptide; format: functional
Cell membrane [8] = assay: Disruption of membrane integrity in […] Enterococcus faecalis ATCC29212 assessed as appearance of wrinkled cell surface at 2.0 ug/ml incubated for 2 hrs by SEM analysis; format: cell membranes; conditions: dose 2.0 µg/ml
Cell membrane [9] = assay: Disruption of membrane integrity in Enterococcus faecalis ATCC29212 assessed as increase in green fluorescence at 8 times MIC incubated for 2 hrs by NucGreen dye based fluorescence microscopic analysis; format: cell membranes
Cell membrane [10] = assay: Disruption of membrane integrity in […] Enterococcus faecalis ATCC29212 assessed as appearance of ruptured cell surface at 2.0 ug/ml incubated for 2 hrs by SEM analysis; format: cell membranes; conditions: dose 2.0 µg/ml
Enterococcus faecalis [11] = assay: Antibacterial activity against Enterococcus faecalis assessed as decrease in bacterial growth measured after 16 to 18 hrs in presence of peptidoglycan; format: functional, organism-based; conditions: time 16-18 hrs
Enterococcus faecalis [12] = assay: Antibacterial activity against Enterococcus faecalis assessed as decrease in bacterial growth measured after 16 to 18 hrs in presence of phosphatidylethanolamine; format: functional, organism-based; conditions: time 16-18 hrs
Cell membrane [13] = assay: Disruption of membrane integrity in Enterococcus faecalis ATCC29212 assessed as increase in red fluorescence at 8 times MIC incubated for 2 hrs by EthD-III dye based fluorescence microscopic analysis
Enterococcus faecalis [14] = assay: Antibacterial activity against Enterococcus faecalis assessed as decrease in bacterial growth measured after 16 to 18 hrs in presence of cardiolipin; format: functional, organism-based; conditions: time 16-18 hrs
Enterococcus faecalis [15] = assay: Antibacterial activity against Enterococcus faecalis assessed as decrease in bacterial growth measured after 16 to 18 hrs in presence of phosphatidylglycerol; format: functional, organism-based; conditions: time 16-18 hrs
Cell membrane [16] = assay: Disruption of membrane integrity in […] Enterococcus faecalis ATCC29212 assessed as appearance of shrunken cell surface at 2.0 ug/ml incubated for 2 hrs by SEM analysis; format: cell membranes; conditions: dose 2.0 µg/ml
Streptococcus mutans [17] = assay: Bactericidal activity against Streptococcus mutans by CLSI protocol based assay; format: functional
Streptococcus mutans [18] = assay: Antibacterial activity against Streptococcus mutans by CLSI protocol based assay; format: functional

| Structure (SMILES) | MIC (Staphylococcus aureus [1]) | MIC (Escherichia coli [2]) | MIC (Enterococcus faecalis [3]) | MIC (Staphylococcus aureus [4]) | MIC (Enterococcus faecalis [5]) | further results |
| --- | --- | --- | --- | --- | --- | --- |
| CC(C)=CCc1c2c(c(O)c3c1O[C@H](c1ccccc1)CC3=O)C=CC(C)(C)O2 | > 128 µg/mL | > 128 µg/mL | > 128 µg/mL | > 128 µg/mL | > 128 µg/mL |  |
| CC(C)C[C@@H]1NC(=O)[C@@H](Cc2ccccc2)NC(=O)[C@H](CCN)NC(=O)[C@@H](NC(=O)[C@H](CCN)NC(=O)[C@@H](N)[C@@H](C)O)CCNC(=O)C([C@@H](C)O)NC(=O)[C@H](CCN)NC(=O)[C@H](CCN)NC1=O (stereo partly drawn) |  |  |  |  |  | MIC (Escherichia coli [6]): > 128 µg/mL |
| CC(C)=CCc1c(O)c2c(c3c1OC(C)(C)C=C3)OC(c1ccc(O)cc1O)CC2=O (stereo not drawn) | 0.25 µg/mL (≈ 0.592 µM) | > 128 µg/mL | 0.5 µg/mL (≈ 1.18 µM) | 0.25 µg/mL (≈ 0.592 µM) | 0.25 µg/mL (≈ 0.592 µM) | MIC (Escherichia coli [7]): 2 µg/mL; MIC (Escherichia coli [6]): > 128 µg/mL; Activity (Cell membrane [8]): Active; Activity (Cell membrane [9]): Active; Activity (Cell membrane [10]): Active; Activity (Enterococcus faecalis [11]): inactive; Activity (Enterococcus faecalis [12]): inactive; Activity (Cell membrane [13]): Active; Activity (Enterococcus faecalis [14]): Active; Activity (Enterococcus faecalis [15]): Active; Activity (Cell membrane [16]): Active |
| CC(C)=CCc1c2c(c(O)c3c1O[C@H](c1ccc(O)cc1O)CC3=O)C=CC(C)(C)O2 [FLEMICHIN D] | 0.5 µg/mL (≈ 1.18 µM) | > 128 µg/mL | 0.5 µg/mL (≈ 1.18 µM) | 0.5 µg/mL (≈ 1.18 µM) | 0.5 µg/mL (≈ 1.18 µM) |  |
| CC1(C)S[C@@H]2[C@H](NC(=O)[C@H](N)c3ccccc3)C(=O)N2[C@H]1C(=O)O [AMPICILLIN] | 32 µg/mL (≈ 91.6 µM) | 8 µg/mL (≈ 22.9 µM) |  | 0.5 µg/mL (≈ 1.43 µM) | 0.5 µg/mL (≈ 1.43 µM) |  |
| COc1ccc([C@@H]2CC(=O)c3c(O)c4c(c(CC=C(C)C)c3O2)OC(C)(C)C=C4)c(O)c1 [KHONKLONGINOL H] | 4 µg/mL (≈ 9.16 µM) | > 128 µg/mL | 4 µg/mL (≈ 9.16 µM) | 2 µg/mL (≈ 4.58 µM) | 1 µg/mL (≈ 2.29 µM) |  |
| CC(C)=CCc1c2c(c(O)c3c1O[C@H](c1ccccc1O)CC3=O)C=CC(C)(C)O2 [MINIMIFLORIN] | 2 µg/mL (≈ 4.92 µM) | > 128 µg/mL | 1 µg/mL (≈ 2.46 µM) | 2 µg/mL (≈ 4.92 µM) | 0.5 µg/mL (≈ 1.23 µM) |  |
| CC(C)=CCc1c2c(c(O)c3c1O[C@H](c1ccc(O)cc1)CC3=O)C=CC(C)(C)O2 [LUPINIFOLIN] | 2 µg/mL (≈ 4.92 µM) | > 128 µg/mL | 1 µg/mL (≈ 2.46 µM) | 2 µg/mL (≈ 4.92 µM) | 0.5 µg/mL (≈ 1.23 µM) | MBC (Streptococcus mutans [17]): 0.5 µg/mL (≈ 1.23 µM); MIC (Streptococcus mutans [18]): 0.25 µg/mL (≈ 0.615 µM) |
